According to patent publication US11873405B2, “High oleic oil compositions and uses thereof” (priority 2021, dated 2024):

Legend:
[1] = test system: E06 mutant (Strain K) microalgae cells; assay: Selection for tolerance to membrane stress: growth (OD750) in 3-day lipid production culture, 96-deep well block; assay type: cell-based, Prototheca wickerhamii; details: fixed 1.6 μM triparanol plus increasing phenethyl alcohol, FIG. 6
Experimental: The mutant strain, Strain 0_E06 (Strain E06), while not phenotypically stable, consistently achieved higher oleate levels than the mutant lineage that gave rise to Strain 1 (TABLE 3). As such, this mutant lineage was selected for further rounds of classical strain improvement, and designated as “Strain K”. Following overnight growth in M21+40 g/L glucose seed media to mid-log phase, the E06 mutant was exposed to 270 mM ethyl methanesulfonate (EMS) in 0.1 M potassium phosphate buffer (pH 7.0) for 45 min at room temperature in dark and with periodic gentle agitation. Mutagenesis was terminated with the addition of a sodium thiosulfate solution to final concentration of 3% (w/v). In parallel, a mock-mutagenized control cell population was taken through all the same manipulations, except for exposure to EMS. Cells were collected using 0.2-micron filter sterilization units, washed extensively with water, and then washed with and into 5 mL M20+5 g/L glucose pre-seed media. Pre-seed cultures were incubated at 28° C./900 rpm/80% humidity for 72 h. An 8% (v/v) inoculum from each culture was then used to initiate a seed culture in 10 mL of standard M21+5 g/L glucose seed media in 50-mL bioreactor tubes. […] Growth was then assessed by measuring optical density at 750 nm wavelength (OD750) in a Molecular Devices Spectramax M5 plate reader. […]

[2] = test system: E06 mutant (Strain K) microalgae cells; assay: Selection for tolerance to triparanol: growth in 3-day lipid production culture, 96-deep well block; assay type: cell-based, Prototheca wickerhamii; details: cells exposed to increasing amounts of triparanol, FIG. 7
Experimental: The cryo-vials were thawed and used to initiate a 10 mL pre-seed culture in bioreactor tube, which was incubated for 72 h at 28° C./200 rpm. Two rounds of selection and enrichment with increasing amounts of triparanol were conducted following the strategy outlined in FIG. 3. […] This population was collected on sterile filters, diluted, and spread on solid media. The resulting clonal isolates were screened in our automated 96-well block-based lipid production and glucose consumption assay. A number of strains with increased oleate levels were identified among the mutant clones (TABLE 5). Strains validated in repeat assays were then assessed for phenotypic stability. Stable strains were cryo-preserved.
Cells were exposed to increasing amounts of triparanol during a 3-day lipid production culture in a 96-deep well block. Significant inhibition of growth occurred at […] concentrations >2 μM. Rare surviving cells presumed to be in wells where 50% inhibition was observed were recovered by sterile filtration, washed with and collected from the filter in M20+glucose pre-seed media. The cultures were then used to initiate another round of selection. By the third round of selection (right panels), a subtle difference in the growth of the mutant population compared to the mock-mutagenized controls was observed. […]

Structure (SMILES): OCCc1ccccc1 [phenethyl alcohol]
- concentrations at which significant inhibition of growth occurred [1]: > 3.6 mM
- concentrations at which significant inhibition of growth occurred [2]: > 2 µM
